Target: NaV 1.8 channel (Homo sapiens, UniProt Q9Y5Y9)
Assay: Activity against NaV 1.8 channel (optical membrane potential assay)
Format: cell-based
Method in brief: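 FRET membrane-potential assay (coumarin CC2-DMPE donor, oxonol DiSBAC2(3) acceptor plus veratridine) on VIPR; compound added with oxonol for 20–30 min before Na+ add-back stimulation. Activity from background-subtracted 460/580 nm ratio change (baseline 2–7 s, response 15–24 s) relative to tetracaine positive and drug-free negative controls.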

Chain of NaV 1.8 channel (Q9Y5Y9 whole entry): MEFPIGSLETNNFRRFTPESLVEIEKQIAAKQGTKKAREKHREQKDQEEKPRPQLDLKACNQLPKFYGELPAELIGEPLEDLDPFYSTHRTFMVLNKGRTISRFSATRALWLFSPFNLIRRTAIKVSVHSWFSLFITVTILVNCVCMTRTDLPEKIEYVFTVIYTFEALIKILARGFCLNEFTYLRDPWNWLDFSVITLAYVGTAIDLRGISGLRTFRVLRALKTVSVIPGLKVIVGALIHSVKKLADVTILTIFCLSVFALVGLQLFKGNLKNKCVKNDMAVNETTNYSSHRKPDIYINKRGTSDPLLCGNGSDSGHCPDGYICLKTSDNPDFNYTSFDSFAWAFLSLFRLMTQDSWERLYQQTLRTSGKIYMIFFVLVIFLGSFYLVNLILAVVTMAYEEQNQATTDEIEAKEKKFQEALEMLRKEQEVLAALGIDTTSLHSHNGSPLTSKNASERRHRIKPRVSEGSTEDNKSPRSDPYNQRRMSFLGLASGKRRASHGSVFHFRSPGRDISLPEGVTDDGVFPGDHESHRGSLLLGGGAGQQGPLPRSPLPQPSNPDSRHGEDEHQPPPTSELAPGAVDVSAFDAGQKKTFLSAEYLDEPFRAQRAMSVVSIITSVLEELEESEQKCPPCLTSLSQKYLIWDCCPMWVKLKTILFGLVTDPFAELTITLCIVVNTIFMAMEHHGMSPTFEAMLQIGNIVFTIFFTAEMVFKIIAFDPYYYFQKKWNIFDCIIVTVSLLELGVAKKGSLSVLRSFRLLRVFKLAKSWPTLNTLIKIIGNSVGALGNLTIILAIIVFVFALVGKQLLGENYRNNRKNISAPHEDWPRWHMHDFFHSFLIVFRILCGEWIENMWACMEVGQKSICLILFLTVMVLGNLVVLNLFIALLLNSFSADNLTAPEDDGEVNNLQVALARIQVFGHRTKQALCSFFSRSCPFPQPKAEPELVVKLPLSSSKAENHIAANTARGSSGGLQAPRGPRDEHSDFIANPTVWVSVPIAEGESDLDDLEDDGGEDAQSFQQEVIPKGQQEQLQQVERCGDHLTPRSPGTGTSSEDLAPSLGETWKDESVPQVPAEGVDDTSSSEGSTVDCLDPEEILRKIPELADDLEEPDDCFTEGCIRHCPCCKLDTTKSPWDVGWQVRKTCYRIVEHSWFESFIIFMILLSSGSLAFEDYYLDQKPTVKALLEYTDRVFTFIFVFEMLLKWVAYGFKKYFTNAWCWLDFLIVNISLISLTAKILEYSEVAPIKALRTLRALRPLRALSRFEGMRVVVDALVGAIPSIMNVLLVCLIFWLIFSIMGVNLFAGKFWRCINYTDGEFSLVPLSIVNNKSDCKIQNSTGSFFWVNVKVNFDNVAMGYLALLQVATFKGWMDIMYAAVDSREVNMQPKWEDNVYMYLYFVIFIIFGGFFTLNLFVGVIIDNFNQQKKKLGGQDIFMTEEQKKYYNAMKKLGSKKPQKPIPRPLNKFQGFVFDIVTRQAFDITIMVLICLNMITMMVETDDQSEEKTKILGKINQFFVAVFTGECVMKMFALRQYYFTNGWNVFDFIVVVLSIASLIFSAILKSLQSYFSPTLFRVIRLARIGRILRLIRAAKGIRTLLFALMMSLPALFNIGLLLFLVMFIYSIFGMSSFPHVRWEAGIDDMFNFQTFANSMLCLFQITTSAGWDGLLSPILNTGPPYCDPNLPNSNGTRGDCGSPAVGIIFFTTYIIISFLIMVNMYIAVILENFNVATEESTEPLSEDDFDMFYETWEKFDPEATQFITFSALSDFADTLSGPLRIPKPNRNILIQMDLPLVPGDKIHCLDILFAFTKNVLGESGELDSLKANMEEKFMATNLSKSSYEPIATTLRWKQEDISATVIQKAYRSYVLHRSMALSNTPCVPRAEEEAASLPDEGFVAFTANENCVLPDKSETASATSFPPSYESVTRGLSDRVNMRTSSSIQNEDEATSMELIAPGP

| Structure (SMILES) | IC50 |
| --- | --- |
| Cc1ccc2c(N3CCN(C(=O)[C@H]4CCCO4)CC3)nc(-c3ccccc3O)nc2c1 [Example 187] | 2 to 10 µM |
| CC(C)=CC(O)C(=O)N1CCN(c2nc(-c3ccccc3O)nc3cc(C)ccc23)CC1 (stereo not drawn) [Example 189] | 2 to 10 µM |
| Cc1ccc2c(N3CCN(C(=O)O[C@H]4COC5OCC[C@@H]54)CC3)nc(-c3ccccc3O)nc2c1 (stereo partly drawn) [Example 190] | 2 to 10 µM |
| CC(C)(C)C[C@@H](O)C(=O)N1CCN(c2nc(-c3ccccc3O)nc3ccccc23)CC1 [Example 191] | < 2 µM |
| O=C(C1CC1)N1CCN(c2nc(-c3ccccc3O)nc3ccc(F)cc23)CC1 [Example 192] | 2 to 10 µM |
| Cc1ccc2c(N3CCN(C(=O)OCC(C)C)CC3)nc(-c3c(C)cccc3O)nc2c1 [Example 193] | < 2 µM |
| CCOC(=O)C(=O)N1CCN(c2nc(-c3ccccc3O)nc3cc(C)ccc23)CC1 [Example 195] | < 2 µM |
| Cc1ccc2c(N3CCN(C(=O)C(C)(C)C)CC3)nc(-c3ccccc3O)nc2c1 [Example 196] | < 2 µM |
| Cc1ccc2c(N3CCN(C(=O)OCC(C)(C)C)CC3)nc(-c3ccccc3O)nc2c1 [Example 197] | < 2 µM |
| Cc1ccc2c(N3CCCC(C(=O)NCc4cccnc4)C3)nc(-c3ccccc3O)nc2c1 (stereo not drawn) [Example 201, 1-(2-(2-Hydroxyphenyl)-7-methylquinazolin-4-yl)-N-((pyridin-3-yl)methyl)piperidine-3-carboxamide] | 2 to 10 µM |
| Cc1ccc2c(N3CCC[C@H](NC(=O)O[C@@H]4CCOC4)C3)nc(-c3ccccc3O)nc2c1 [Example 203, (R)-Tetrahydrofuran-3-yl (S)-1-(2-(2-hydroxyphenyl)-7-methylquinazolin-4-yl)piperidin-3-ylcarbamate] | > 10 µM |
| Cc1ccc2c(N3CCC[C@H](NC(=O)O[C@H]4CCOC4)C3)nc(-c3ccccc3O)nc2c1 [Example 204, (S)-Tetrahydrofuran-3-yl (S)-1-(2-(2-hydroxyphenyl)-7-methylquinazolin-4-yl)piperidin-3-ylcarbamate] | > 10 µM |
| Cc1ccc2c(N3CCC[C@H](NC(=O)[C@H]4CCCO4)C3)nc(-c3ccccc3O)nc2c1 [Example 205, (2R)-Tetrahydro-N—((S)-1-(2-(2-hydroxyphenyl)-7-methylquinazolin-4-yl)piperidin-3-yl)furan-2-carboxamide] | > 10 µM |
| Cc1ccc2c(N3CCC[C@@H](NC(=O)[C@H]4CCCO4)C3)nc(-c3ccccc3O)nc2c1 [Example 206, (2R)-Tetrahydro-N—((R)-1-(2-(2-hydroxyphenyl)-7-methylquinazolin-4-yl)piperidin-3-yl)furan-2-carboxamide] | 2 to 10 µM |
| Cc1ccc2c(N3CCC[C@@H](NC(=O)O[C@@H]4CCOC4)C3)nc(-c3ccccc3O)nc2c1 [Example 207, (R)-Tetrahydrofuran-3-yl (R)-1-(2-(2-hydroxyphenyl)-7-methylquinazolin-4-yl)piperidin-3-ylcarbamate] | < 2 µM |
| Cc1ccc2c(N3CCC[C@@H](NC(=O)O[C@H]4CCOC4)C3)nc(-c3ccccc3O)nc2c1 [Example 208, (S)-Tetrahydrofuran-3-yl (R)-1-(2-(2-hydroxyphenyl)-7-methylquinazolin-4-yl)piperidin-3-ylcarbamate] | < 2 µM |
| Cc1ccc2c(N3CCCC(CNC(=O)O[C@@H]4CCOC4)C3)nc(-c3ccccc3O)nc2c1 (stereo partly drawn) [Example 210, (R)-Tetrahydrofuran-3-yl (1-(2-(2-hydroxyphenyl)-7-methylquinazolin-4-yl)piperidin-3-yl)methylcarbamate] | 2 to 10 µM |
| Cc1ccc2c(N3CCCC(CNC(=O)O[C@H]4CCOC4)C3)nc(-c3ccccc3O)nc2c1 (stereo partly drawn) [Example 211, (S)-Tetrahydrofuran-3-yl (1-(2-(2-hydroxyphenyl)-7-methylquinazolin-4-yl)piperidin-3-yl)methylcarbamate] | > 10 µM |
| Cc1ccc2c(N3CCCC(CNC(=O)C4CC4)C3)nc(-c3ccccc3O)nc2c1 (stereo not drawn) [Example 212, N—((1-(2-(2-Hydroxyphenyl)-7-methylquinazolin-4-yl)piperidin-3-yl)methyl)cyclopropanecarboxamide] | > 10 µM |
| O=C(NC1CCN(c2nc(-c3c(O)cccc3Cl)nc3ccccc23)CC1)[C@H]1CCCO1 [Example 213, (2R)—N—(1-(2-(2-Chloro-6-hydroxyphenyl)quinazolin-4-yl)piperidin-4-yl)-tetrahydrofuran-2-carboxamide] | > 10 µM |
| Cc1ccc2c(N3CCC[C@@H](CNC(=O)O[C@@H]4CCOC4)C3)nc(-c3ccccc3O)nc2c1 [Example 214, (R)-Tetrahydrofuran-3-yl ((S)-1-(2-(2-hydroxyphenyl)-7-methylquinazolin-4-yl)piperidin-3-yl)methylcarbamate] | > 10 µM |
| Cc1ccc2c(N3CCC[C@@H](CNC(=O)O[C@H]4CCOC4)C3)nc(-c3ccccc3O)nc2c1 [Example 215, (S)-Tetrahydrofuran-3-yl ((S)-1-(2-(2-hydroxyphenyl)-7-methylquinazolin-4-yl)piperidin-3-yl)methylcarbamate] | > 10 µM |
| Cc1ccc2c(N3CCC[C@H](CNC(=O)O[C@@H]4CCOC4)C3)nc(-c3ccccc3O)nc2c1 [Example 216, (R)-Tetrahydrofuran-3-yl ((R)-1-(2-(2-hydroxyphenyl)-7-methylquinazolin-4-yl)piperidin-3-yl)methylcarbamate] | > 10 µM |
| Cc1ccc2c(N3CCC[C@H](CNC(=O)O[C@H]4CCOC4)C3)nc(-c3ccccc3O)nc2c1 [Example 217, (S)-Tetrahydrofuran-3-yl ((R)-1-(2-(2-hydroxyphenyl)-7-methylquinazolin-4-yl)piperidin-3-yl)methylcarbamate] | > 10 µM |
| Cc1ccc2c(N3CCC(NC(=O)[C@H]4CCCO4)CC3)nc(-c3c(C)cccc3O)nc2c1 [Example 218, (2R)-Tetrahydro-N-(1-(2-(2-hydroxy-6-methylphenyl)-7-methylquinazolin-4-yl)piperidin-4-yl)furan-2-carboxamide] | 2 to 10 µM |
| Cc1ccc2c(N3CCC(NC(=O)OCC4CCCCO4)CC3)nc(-c3ccccc3O)nc2c1 (stereo not drawn) [Example 219, {1-[2-(2-Hydroxy-phenyl)-7-methyl-quinazolin-4-yl]-piperidin-4-yl}-carbamic acid tetrahydro-pyran-2-ylmethyl ester] | < 2 µM |
| Cc1ccc2c(N3CCC(NC(=O)C4CCOCC4)CC3)nc(-c3ccccc3O)nc2c1 [Example 220, Tetrahydro-N-(1-(2-(2-hydroxyphenyl)-7-methylquinazolin-4-yl)piperidin-4-yl)-2H-pyran-4-carboxamide] | > 10 µM |
| Cc1ccc2c(N3CCC(NC(=O)CC4CCOCC4)CC3)nc(-c3ccccc3O)nc2c1 [Example 221, 2-(Tetrahydro-2H-pyran-4-yl)-N-(1-(2-(2-hydroxyphenyl)-7-methylquinazolin-4-yl)piperidin-4-yl)acetamide] | > 10 µM |
| Cc1ccc2c(N3CCC(NC(=O)COC4CC(C)CCC4C(C)C)CC3)nc(-c3ccccc3O)nc2c1 (stereo not drawn) [Example 222, 2-(2-Isopropyl-5-methylcyclohexyloxy)-N-(1-(2-(2-hydroxyphenyl)-7-methylquinazolin-4-yl)piperidin-4-yl)acetamide] | > 10 µM |
| Cc1ccc2c(N3CCC(NC(=O)CCc4ccccn4)CC3)nc(-c3ccccc3O)nc2c1 [Example 223, N-(1-(2-(2-Hydroxyphenyl)-7-methylquinazolin-4-yl)piperidin-4-yl)-3-(pyridin-2-yl)propanamide] | > 10 µM |
